Measured values as given in PMC2635097 (Molecular pharmacology, 2008).
“And” between values parts separate entries of the source, which are not always exact repeats. Identical values can stand only once. Positions of bridges follow the written chain, without caps; N, C: chain ends. No end group written: not given here.

Key:
hKCa2.1 = hKCa2.1 (Homo sapiens, UniProt Q92952); assay: Whole-cell patch-clamp of KCa2.1 currents; type: cell-based
hKCa1.1 = hKCa1.1 (Homo sapiens, UniProt Q12791); assay: Selectivity patch-clamp, KCa1.1 currents; type: cell-based; conditions: 1 μM free Ca2+
mKv1.1 = mKv1.1 (Mus musculus, UniProt P16388); assay: Selectivity patch-clamp, Kv1.1 currents; type: cell-based
rKv4.2 = molecular target: T1, rKv4.2 (Rattus norvegicus, UniProt Q63881); assay: Selectivity patch-clamp, Kv4.2 currents; type: cell-based
T1 sequence (Q63881 1-630): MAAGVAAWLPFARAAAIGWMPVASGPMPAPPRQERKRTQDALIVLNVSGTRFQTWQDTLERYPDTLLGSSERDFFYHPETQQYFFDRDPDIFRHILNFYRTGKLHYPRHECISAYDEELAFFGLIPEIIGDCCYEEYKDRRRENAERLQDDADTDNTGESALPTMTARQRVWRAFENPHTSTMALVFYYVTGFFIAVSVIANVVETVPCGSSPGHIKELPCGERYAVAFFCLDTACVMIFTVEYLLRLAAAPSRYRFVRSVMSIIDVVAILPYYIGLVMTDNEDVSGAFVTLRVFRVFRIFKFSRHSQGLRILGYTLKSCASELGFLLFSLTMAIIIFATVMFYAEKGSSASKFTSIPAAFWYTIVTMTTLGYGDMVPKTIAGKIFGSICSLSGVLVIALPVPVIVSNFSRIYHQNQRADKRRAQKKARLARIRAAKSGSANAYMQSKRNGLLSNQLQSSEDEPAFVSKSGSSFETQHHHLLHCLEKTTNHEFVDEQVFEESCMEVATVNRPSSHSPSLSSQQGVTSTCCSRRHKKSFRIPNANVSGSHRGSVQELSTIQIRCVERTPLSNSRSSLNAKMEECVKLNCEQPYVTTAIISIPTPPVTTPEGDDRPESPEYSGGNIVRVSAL

Nav1.2 = Nav1.2 (Mus musculus, UniProt B1AWN6); assay: Selectivity patch-clamp, Nav1.2 currents from N1E-115 cells; type: cell-based
hKCa3.1 = hKCa3.1 (Homo sapiens, UniProt O15554); assay: Whole-cell patch-clamp of KCa3.1 currents; type: cell-based
K2P2.1 (TREK-1) = molecular target: T2, K2P2.1 (TREK-1) (Mus musculus, UniProt P97438); assay: Selectivity patch-clamp, endothelial cell TREK-1 currents; type: cell-based
T2 sequence (P97438 1-426): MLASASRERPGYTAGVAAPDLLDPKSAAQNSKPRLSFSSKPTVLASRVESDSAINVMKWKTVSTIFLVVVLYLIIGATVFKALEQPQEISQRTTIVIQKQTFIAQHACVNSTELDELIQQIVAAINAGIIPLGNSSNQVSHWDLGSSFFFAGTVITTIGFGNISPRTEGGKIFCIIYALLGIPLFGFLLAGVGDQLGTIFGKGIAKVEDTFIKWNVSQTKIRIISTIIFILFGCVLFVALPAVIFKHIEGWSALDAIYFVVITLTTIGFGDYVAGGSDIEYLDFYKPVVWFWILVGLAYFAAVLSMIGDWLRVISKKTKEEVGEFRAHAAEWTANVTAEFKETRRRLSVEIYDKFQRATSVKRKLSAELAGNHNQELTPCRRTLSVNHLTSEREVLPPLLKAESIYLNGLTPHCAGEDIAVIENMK

mKv3.1 = mKv3.1 (Mus musculus, UniProt P15388); assay: Selectivity patch-clamp, Kv3.1 currents; type: cell-based
hKv1.5 = hKv1.5 (Homo sapiens, UniProt P22460); assay: Selectivity patch-clamp, Kv1.5 currents; type: cell-based
rKCa2.2 = rKCa2.2 (Rattus norvegicus, UniProt P70604); assay: Whole-cell patch-clamp of KCa2.2 currents; type: cell-based
Rat Kv3.2 = Rat Kv3.2 (Rattus norvegicus, UniProt P22462); assay: Selectivity patch-clamp, Kv3.2 currents; type: cell-based
hNav1.4 = hNav1.4 (Homo sapiens, UniProt P35499); assay: Selectivity patch-clamp, Nav1.4 currents; type: cell-based
hKCa2.3 = hKCa2.3 (Homo sapiens, UniProt Q9UGI6); assay: Whole-cell patch-clamp of KCa2.3 currents; type: cell-based
logP = type: physicochemical
Rat Nav1.5 = Rat Nav1.5 (Rattus norvegicus, UniProt P15389); assay: Selectivity patch-clamp, Nav1.5 currents; type: cell-based
mice [1] = assay: Maximal electroshock; type: in vivo, mouse; conditions: 100 mg/kg i.p., 15 min, 30 min and 1 hour
mice [2] = type: in vivo, mouse; conditions: 100 mg/kg i.p., 15 min, 30 min and 1 hour
murine carotid artery = assay: Pressure myography, EDHF-type dilation of carotid artery; design: species or system mouse
Jurkat E61 and MEL cells = assay: Cytotoxicity assay; type: cell-based; conditions: concentrations up to 100 μM; 48 h
mKv1.3 = mKv1.3 (Mus musculus, UniProt P16390); assay: Selectivity patch-clamp, Kv1.3 currents; type: cell-based
[3] = molecular target: glutamate site of NMDA receptors (Rattus norvegicus, UniProt Q00959); assay: NMDA receptor radioligand binding assay
Kv11.1 (HERG) = Kv11.1 (HERG) (Homo sapiens, UniProt Q12809)
Cav1.2 = Cav1.2 (Oryctolagus cuniculus, UniProt P15381); assay: Selectivity patch-clamp, Cav1.2 currents; type: cell-based
Pharmacokinetics in rats = type: in vivo; conditions: rat; for peak total plasma concentration: 2 h
[4] = system: wt mice infused with Ang-II; assay: Telemetric blood pressure in angiotensin-II-induced hypertension; type: in vivo, mouse; conditions: 30 mg/kg i.p.
[5] = Plasma protein binding by ultrafiltration; type: in vitro ADME, rat
wt and KCa3.1−/− mice = assay: Telemetric blood pressure in normotensive mice; type: in vivo, mouse; conditions: for MAP over 24 h: mean ± SEM; for lowering of mean arterial pressure (MAP): over 24 h
[6] = male, Sprague-Dawley, plasma, iv, 10 mg/kg

Sequence of hKCa3.1 (O15554 whole entry): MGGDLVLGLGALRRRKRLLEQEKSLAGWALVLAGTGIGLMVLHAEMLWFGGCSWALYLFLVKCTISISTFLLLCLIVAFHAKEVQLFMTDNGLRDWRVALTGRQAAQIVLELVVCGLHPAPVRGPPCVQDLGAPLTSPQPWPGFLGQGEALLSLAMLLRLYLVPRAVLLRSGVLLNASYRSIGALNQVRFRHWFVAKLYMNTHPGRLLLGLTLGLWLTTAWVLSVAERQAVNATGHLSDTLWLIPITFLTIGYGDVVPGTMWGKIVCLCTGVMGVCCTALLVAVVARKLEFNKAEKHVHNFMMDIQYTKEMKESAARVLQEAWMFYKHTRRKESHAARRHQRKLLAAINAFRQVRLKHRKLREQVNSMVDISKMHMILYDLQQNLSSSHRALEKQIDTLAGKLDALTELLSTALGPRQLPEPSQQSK
Sequence of hKCa1.1 (Q12791 whole entry): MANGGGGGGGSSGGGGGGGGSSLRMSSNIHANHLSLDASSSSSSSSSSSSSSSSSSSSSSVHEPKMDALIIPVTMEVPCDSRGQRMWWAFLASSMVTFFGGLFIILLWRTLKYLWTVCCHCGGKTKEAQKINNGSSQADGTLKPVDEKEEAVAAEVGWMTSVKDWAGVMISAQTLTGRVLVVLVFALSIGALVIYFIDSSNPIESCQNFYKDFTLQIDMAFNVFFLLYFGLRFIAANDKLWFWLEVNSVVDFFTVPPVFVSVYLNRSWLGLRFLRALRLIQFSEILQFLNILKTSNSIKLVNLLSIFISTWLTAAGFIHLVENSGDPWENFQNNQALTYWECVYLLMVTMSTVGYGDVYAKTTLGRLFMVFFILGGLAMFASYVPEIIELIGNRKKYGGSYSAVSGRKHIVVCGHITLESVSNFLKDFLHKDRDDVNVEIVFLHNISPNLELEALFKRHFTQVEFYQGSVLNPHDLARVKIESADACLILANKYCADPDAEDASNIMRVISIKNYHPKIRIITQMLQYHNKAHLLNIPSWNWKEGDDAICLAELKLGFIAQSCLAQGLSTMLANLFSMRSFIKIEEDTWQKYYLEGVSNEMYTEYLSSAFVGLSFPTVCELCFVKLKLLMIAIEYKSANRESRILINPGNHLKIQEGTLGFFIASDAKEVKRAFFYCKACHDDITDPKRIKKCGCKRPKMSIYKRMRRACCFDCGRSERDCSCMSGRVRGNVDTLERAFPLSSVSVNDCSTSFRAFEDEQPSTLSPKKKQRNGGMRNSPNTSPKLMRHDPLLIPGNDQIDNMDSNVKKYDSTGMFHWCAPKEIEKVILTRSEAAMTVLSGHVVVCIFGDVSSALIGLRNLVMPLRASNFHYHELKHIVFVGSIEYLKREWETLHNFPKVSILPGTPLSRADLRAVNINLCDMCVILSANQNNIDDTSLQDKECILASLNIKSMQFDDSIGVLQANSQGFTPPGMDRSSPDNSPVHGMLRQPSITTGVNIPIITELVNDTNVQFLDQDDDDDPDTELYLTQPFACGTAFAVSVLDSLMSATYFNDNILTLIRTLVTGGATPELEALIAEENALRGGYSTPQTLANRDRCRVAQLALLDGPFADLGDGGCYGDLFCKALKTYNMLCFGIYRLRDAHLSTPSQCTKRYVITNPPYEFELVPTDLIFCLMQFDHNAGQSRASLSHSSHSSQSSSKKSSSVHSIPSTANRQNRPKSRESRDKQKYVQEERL
Sequence of mKv1.1 (P16388 whole entry): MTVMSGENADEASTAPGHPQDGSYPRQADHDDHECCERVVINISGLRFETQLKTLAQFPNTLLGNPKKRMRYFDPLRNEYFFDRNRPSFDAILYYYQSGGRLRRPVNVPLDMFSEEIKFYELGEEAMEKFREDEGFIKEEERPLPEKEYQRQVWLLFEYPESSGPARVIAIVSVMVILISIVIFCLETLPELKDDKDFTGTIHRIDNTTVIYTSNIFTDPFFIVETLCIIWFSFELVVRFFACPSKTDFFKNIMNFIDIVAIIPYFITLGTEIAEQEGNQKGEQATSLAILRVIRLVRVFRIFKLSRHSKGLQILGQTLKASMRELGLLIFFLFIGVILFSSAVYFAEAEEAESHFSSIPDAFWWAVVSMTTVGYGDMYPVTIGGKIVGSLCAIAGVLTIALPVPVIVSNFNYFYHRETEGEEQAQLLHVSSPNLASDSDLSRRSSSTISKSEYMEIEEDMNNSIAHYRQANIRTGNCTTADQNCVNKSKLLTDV
Sequence of hKCa2.1 (Q92952 whole entry): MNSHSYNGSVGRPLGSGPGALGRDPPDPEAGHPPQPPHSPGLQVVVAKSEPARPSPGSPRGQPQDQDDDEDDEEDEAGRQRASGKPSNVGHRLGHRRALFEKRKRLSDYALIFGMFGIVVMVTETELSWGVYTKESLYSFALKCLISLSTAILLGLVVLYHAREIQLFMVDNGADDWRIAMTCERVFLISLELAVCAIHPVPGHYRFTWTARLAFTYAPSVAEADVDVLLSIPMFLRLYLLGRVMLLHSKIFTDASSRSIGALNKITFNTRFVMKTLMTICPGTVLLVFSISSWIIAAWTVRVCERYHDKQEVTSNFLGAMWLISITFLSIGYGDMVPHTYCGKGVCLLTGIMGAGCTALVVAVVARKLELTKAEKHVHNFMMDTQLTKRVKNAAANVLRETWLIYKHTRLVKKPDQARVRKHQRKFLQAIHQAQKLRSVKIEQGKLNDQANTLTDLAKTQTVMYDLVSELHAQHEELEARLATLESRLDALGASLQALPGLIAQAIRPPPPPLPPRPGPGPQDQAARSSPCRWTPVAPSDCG
Sequence of hKv1.5 (P22460 whole entry): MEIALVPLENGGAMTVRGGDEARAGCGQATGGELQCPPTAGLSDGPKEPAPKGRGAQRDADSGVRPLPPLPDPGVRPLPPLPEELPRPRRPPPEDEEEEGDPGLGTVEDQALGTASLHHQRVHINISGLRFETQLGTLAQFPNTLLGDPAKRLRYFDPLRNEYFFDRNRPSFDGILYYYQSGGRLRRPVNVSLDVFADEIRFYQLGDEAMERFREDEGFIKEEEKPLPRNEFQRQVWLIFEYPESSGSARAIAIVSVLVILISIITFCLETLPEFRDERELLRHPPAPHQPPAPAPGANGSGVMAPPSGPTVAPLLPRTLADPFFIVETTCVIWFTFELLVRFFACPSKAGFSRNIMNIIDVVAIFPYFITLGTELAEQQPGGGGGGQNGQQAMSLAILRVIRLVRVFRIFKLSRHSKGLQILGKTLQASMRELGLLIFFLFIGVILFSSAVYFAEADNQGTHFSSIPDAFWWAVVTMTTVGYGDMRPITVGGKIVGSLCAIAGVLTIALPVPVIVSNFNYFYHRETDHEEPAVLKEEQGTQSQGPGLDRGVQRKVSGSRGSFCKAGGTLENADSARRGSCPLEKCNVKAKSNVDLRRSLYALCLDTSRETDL
Sequence of mKv3.1 (P15388 whole entry): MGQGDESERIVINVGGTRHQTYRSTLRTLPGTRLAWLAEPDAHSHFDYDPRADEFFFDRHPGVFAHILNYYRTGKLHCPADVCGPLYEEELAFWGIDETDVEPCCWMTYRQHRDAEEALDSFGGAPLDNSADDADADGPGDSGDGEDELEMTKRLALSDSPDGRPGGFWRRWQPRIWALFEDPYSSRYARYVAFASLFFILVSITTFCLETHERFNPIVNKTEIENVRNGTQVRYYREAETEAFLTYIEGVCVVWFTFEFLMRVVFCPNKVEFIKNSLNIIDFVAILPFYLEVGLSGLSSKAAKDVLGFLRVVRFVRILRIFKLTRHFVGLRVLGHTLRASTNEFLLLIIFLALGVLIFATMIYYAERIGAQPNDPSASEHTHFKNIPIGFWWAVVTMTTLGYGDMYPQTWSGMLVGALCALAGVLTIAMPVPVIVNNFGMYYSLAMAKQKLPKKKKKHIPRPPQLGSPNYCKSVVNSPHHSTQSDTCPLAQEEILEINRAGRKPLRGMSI
Sequence of Rat Kv3.2 (P22462 whole entry): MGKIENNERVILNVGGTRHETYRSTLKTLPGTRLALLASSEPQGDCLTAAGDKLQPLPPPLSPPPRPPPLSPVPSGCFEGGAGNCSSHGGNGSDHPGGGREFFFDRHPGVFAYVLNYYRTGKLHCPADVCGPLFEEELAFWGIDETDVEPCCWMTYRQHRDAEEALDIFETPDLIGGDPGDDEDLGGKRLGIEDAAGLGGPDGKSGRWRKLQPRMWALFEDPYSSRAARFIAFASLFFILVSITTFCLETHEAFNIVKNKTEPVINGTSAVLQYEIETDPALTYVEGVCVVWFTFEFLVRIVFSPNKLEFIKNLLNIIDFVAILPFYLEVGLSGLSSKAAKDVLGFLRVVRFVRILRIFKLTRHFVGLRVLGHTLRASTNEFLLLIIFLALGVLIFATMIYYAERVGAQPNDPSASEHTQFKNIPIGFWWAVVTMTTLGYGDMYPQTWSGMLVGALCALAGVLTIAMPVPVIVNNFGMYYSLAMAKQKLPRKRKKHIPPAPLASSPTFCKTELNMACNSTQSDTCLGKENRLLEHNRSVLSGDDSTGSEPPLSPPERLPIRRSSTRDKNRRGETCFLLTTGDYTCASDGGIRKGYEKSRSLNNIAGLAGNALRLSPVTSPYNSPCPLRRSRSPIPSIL
Sequence of rKCa2.2 (P70604 whole entry): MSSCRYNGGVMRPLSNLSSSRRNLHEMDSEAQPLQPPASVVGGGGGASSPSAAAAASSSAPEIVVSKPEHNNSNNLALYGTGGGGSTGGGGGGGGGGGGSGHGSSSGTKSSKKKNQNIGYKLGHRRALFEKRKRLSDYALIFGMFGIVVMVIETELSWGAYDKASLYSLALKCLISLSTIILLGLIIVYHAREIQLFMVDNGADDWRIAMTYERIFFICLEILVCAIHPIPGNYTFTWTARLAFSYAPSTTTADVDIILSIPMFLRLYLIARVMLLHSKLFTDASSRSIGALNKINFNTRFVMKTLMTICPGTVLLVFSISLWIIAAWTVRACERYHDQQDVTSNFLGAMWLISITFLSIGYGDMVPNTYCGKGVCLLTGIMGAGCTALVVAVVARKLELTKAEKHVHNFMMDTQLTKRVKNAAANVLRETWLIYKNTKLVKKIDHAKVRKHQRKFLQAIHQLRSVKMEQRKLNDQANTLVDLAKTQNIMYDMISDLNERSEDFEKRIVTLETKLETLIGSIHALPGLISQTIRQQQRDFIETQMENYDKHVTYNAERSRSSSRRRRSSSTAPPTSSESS

Nc1nc2ccc(OC(F)(F)F)cc2s1 [Riluzole, 2-amino-6-[trifluoromethoxy]benzothiazole, reference compound]
EC50 (hKCa2.1): 21 µM
effect on KCa1.1 current at 100 μM (hKCa1.1; 100 μM): Doubles current at 100 μM
IC50 (mKv1.1): 92 ± 7 µM
IC50 (rKv4.2): 130 ± 10 µM
IC50 (Nav1.2): 15 ± 3 µM
EC50 (hKCa3.1): 1.9 µM
increase of KCa3.1 currents (hKCa3.1; 250 nM [Ca2+]i): ~30 fold
increase of KCa3.1 currents (hKCa3.1; 1 μM [Ca2+]i): roughly 3 fold
EC50 (K2P2.1 (TREK-1)): 110 ± 35 µM
IC50 (mKv3.1): 95 ± 5 µM
IC50 (hKv1.5): 95 ± 5 µM
EC50 (rKCa2.2): 12.8 µM
IC50 (Rat Kv3.2): 100 ± 10 µM

Nc1nc2ccc3cc4ccccc4cc3c2s1 [SKA-20, Anthra[2,1-d]thiazol-2-ylamine]
EC50 (hKCa2.1): 0.43 µM
effect on KCa1.1 current at 10 μM (hKCa1.1; 10 μM): No effect at 10 μM
Kv1.1 block at 10 μM (mKv1.1; 10 μM): 12 ± 3%block at 10 μM
Nav1.4 block at 10 μM (hNav1.4; 10 μM): No effect at 10 μM
Kv4.2 block at 10 μM (rKv4.2; 10 μM): 10 ± 3% block at 10 μM
IC50 (Nav1.2): 14 ± 2 µM
EC50 (hKCa3.1): 0.115 µM
K2P2.1 (TREK-1) effect at 10 μM (K2P2.1 (TREK-1); 10 μM): No effect at 10 μM
EC50 (hKCa2.3; read-out: EC50 KCa2.3 activation, 250 nM [Ca2+]i): 1.2 µM
logP (logP): 3.1
Nav1.5 block at 10 μM (Rat Nav1.5): 30 ± 5% block at 10 μM
Kv3.1 block at 10 μM (mKv3.1; 10 μM): 35 ± 3% block at 10 μM
EC50 (rKCa2.2): 1.9 µM
Kv3.2 block at 10 μM (Rat Kv3.2; 10 μM): 12 ± 5% block at 10 μM

Nc1nc2cc3c(cc2s1)CCC3 [SKA-29, 6,7-Dihydro-5H-indeno[5,6-d]thiazol-2-amine]
protection from seizures, maximal electroshock (MES) model (mice [1]): effectively protect mice from seizures
protection from seizures, 6 Hz minimal electroshock model (mice [2]): effectively protect mice from seizures

Nc1nc2c(ccc3ccccc32)s1 [SKA-31, naphtho[1,2-d]thiazol-2-ylamine]
effect on carotid artery diameter in the absence of acetylcholine (murine carotid artery; 0.01 to 1 μM): did not dilate or contract
potentiation of residual KCa2.3-mediated EDHF-type response (murine carotid artery; carotid arteries of KCa3.1−/− mice, 0.1 to 1 μM): did not potentiate
increase in EDHF-type dilation at 1 μM (murine carotid artery; wt carotid artery, 100 nM acetylcholine, 1 μM): two- to three-fold increase in dilation
protection from seizures, maximal electroshock (MES) model (mice [1]): effectively protect mice from seizures
effect on KCa1.1 current at 25 μM (hKCa1.1; 25 μM): No effect at 25 μM
Kv1.1 block at 25 μM (mKv1.1; 25 μM): No effect at 25 μM
Nav1.4 block at 25 μM (hNav1.4; 25 μM): 20 ± 5 % block at 25 μM
cytotoxicity (Jurkat E61 and MEL cells): not cytotoxic
Kv1.3 block at 25 μM (mKv1.3): 20 ± 5% block at 25 μM
Kv4.2 block at 25 μM (rKv4.2; 25 μM): No effect at 25 μM
effect in NMDA receptor binding assay at 25 μM [3]: no effect
K2P2.1 (TREK-1) effect at 25 μM (K2P2.1 (TREK-1); 25 μM): No effect at 25 μM
Kv11.1 (HERG) block at 25 μM (Kv11.1 (HERG)): No effect at 25 μM
Cav1.2 block at 25 μM (Cav1.2): No effect at 25 μM
logP (logP): 2.2
Tmax (Pharmacokinetics in rats; male, Sprague-Dawley, plasma, ip, 30 mg/kg): 2 h
concentration at 1 h (Pharmacokinetics in rats; [6]): 5000 nM
concentration at 24 h (Pharmacokinetics in rats; [6]): 2500 nM
concentration at 48 h (Pharmacokinetics in rats; [6]): 2000 nM
concentration at 80 h (Pharmacokinetics in rats; [6]): 2000 nM
peak total plasma concentration (Pharmacokinetics in rats; i.p. 10 mg/kg): 25 µM
plasma concentrations higher than tissue concentrations (Pharmacokinetics in rats; i.p. 10 mg/kg, 2 h (plasma peak)): 4–8 fold
peak total plasma concentration (Pharmacokinetics in rats; i.p. 30 mg/kg): 37 µM
total plasma concentration, peak at 3 min (Pharmacokinetics in rats; i.v. 10 mg/kg, 3 min): 30 µM
protection from seizures, 6 Hz minimal electroshock model (mice [2]): effectively protect mice from seizures
Kv1.5 block at 25 μM (hKv1.5; 25 μM): 20 ± 5% block at 25 μM
MAP ([4]; Ang-II hypertensive wt mice, mean ± SEM): 120 ± 4 mmHg
lowering of mean arterial pressure (MAP) ([4]; angiotensin-II-induced hypertension, wt mice): 12 mmHg
unbound (free) fraction ([5]; rat plasma spiked with 10 μM): 61 ± 1.7% and 61%
fraction unbound at 15 min, 10 μM ([5]; rat, plasma): 0.61
MAP over 24 h (wt and KCa3.1−/− mice; KCa3.1−/− mice, 10 mg/kg i.p.): 104.3 ± 1.5 mmHg
MAP over 24 h (wt and KCa3.1−/− mice; KCa3.1−/− mice, 30 mg/kg i.p.): 102.9 ± 0.6 mmHg
effect on mean arterial pressure (MAP) (wt and KCa3.1−/− mice; KCa3.1−/− mice, 10 and 30 mg/kg i.p.): no blood pressure lowering effects
effect on heart rate (wt and KCa3.1−/− mice; any of the groups): did not alter heart rate
effect on mean arterial pressure (MAP) (wt and KCa3.1−/− mice; normotensive wt mice, 1 mg/kg i.p.): ineffective
lowering of mean arterial pressure (MAP) (wt and KCa3.1−/− mice; normotensive wt mice, 10 mg/kg i.p.): 4 mmHg
lowering of mean arterial pressure (MAP) (wt and KCa3.1−/− mice; normotensive wt mice, 30 mg/kg i.p.): 6 mmHg
MAP over 24 h (wt and KCa3.1−/− mice; wt mice, 1 mg/kg i.p.): 99.0 ± 2.0 mmHg
MAP over 24 h (wt and KCa3.1−/− mice; wt mice, 10 mg/kg i.p.): 95.8 ± 1.3 mmHg
MAP over 24 h (wt and KCa3.1−/− mice; wt mice, 30 mg/kg i.p.): 94.1 ± 1.3 mmHg

apamin (CNCKAPETALCARRCQQH-NH2; disulfide 1-11, 3-15; ends not checked; UniProt P01500 28-45, looked up)
IC50 (hKCa2.3; read-out: IC50 blockade of hKCa2.3 currents, currents activated with 10 μM SKA-31, 250 nM free Ca2+): ~0.001 µM
